Test results reported in patent US20200268762A1, “7-SUBSTITUTED SULFONIMIDOYLPURINONE COMPOUNDS AND DERIVATIVES FOR THE TREATMENT AND PROPHYLAXIS OF LIVER CANCER” (Hoffmann-La Roche Inc., priority 2019, published 2020).
Entries after “also recorded” stand apart in the source; their conditions may differ.

Assays:
[1] = test system: Hep55.1c mouse model of hepatocellular carcinoma; experiment: Hep55.1c tumor fragment transplantation model, survival; assay type: in vivo, C57BL/6N mice; settings: alive on day 94 after tumor fragment transplantation; 41-A weekly oral, anti-PD-1 250 μg i.p. 8 doses
Experimental: Female C57BL/6N mice (Jackson Laboratories) were injected intra hepatically with 5×10^5 Hep55.1c tumor cell line together with Matrigel (Matrigel Basement Membrane Matrix, Corning Cat #354234) in a total volume of 20 μl (10 μl cell suspension plus 10 μl Martigel). After 3 weeks, animals were sacrificed and tumors excised from the liver. Excised tumors were cut into 1×1 mm^3 pieces and implanted into the liver of female C57BL/6N mice. Scout animals were sacrificed to determine the time point of treatment start at about 80 mm^3 tumor volume. […] 41-A was given weekly, while anti-PD-1 antibody treatment started one day after 41-A treatment and was continued every three to four days for 8 doses in total. Treatment with both agents was stopped after the last anti-PD-1 administration.

[2] = test system: PD-L1 expression on tumor cells; experiment: PD-L1 expression on tumor cells of iAST mice by flow cytometry; assay type: in vivo, mouse; settings: day 12 after treatment start
Experimental: Tumors from iAST mice were treated as described in FIG. 1. […] For flow cytometry, tumors were excised and single cell suspensions obtained by mechanical processing and enzymatic digestion (DNAse 0.01%, Collagenase IV 1 mg/ml). Staining procedures started with Fc receptor blocking using 2.4G2 antibody clone (1:200 dilution, BD Bioscience), and the following antibodies (clones) were used to analyzed leukocyte infiltrate: CD45-FITC (30-F11, BioLegend) and CD11b-BUV737 (M1/70, BD Bioscience). Samples were acquired using a LSR Fortessa machine (BD Bioscience) and analyzed by FlowJo version 10 (Treestar).

[3] = test system: iAST mouse model of hepatocellular carcinoma; experiment: iAST mouse model of hepatocellular carcinoma, tumor burden; settings: iAST mice, day 12 after treatment start; 41-A 10 mg/kg once a week oral, Sorafenib 90 mg/kg daily
Experimental: Per group n=10 were analyzed by One-way ANOVA and Tukey correction shown as individual dots with means±SEM using GraphPad Prism software version 6.

[4] = test system: Hep55.1c tumor bearing mice; experiment: Transplanted Hep55.1c mouse model of hepatocellular carcinoma, tumor volume by μCT; assay type: in vivo, C57BL/6N mice; settings: Hep55.1c intrahepatic tumors; 41-A 10 mg/kg weekly oral; anti-CD40 4 mg/kg single dose; vs vehicle
Experimental: Female C57BL/6N mice (Jackson Laboratories) were injected intra hepatically with 5×10^5 Hep55.1c tumor cell line together with Matrigel (Matrigel Basement Membrane Matrix, Corning Cat #354234) in a total volume of […] (10 μl cell suspension plus 10 μl Martigel). Tumor volume was monitored weekly using μCT (TomoScope Synergy Twin, CT Imaging GmbH) upon a single intravenous administration of contrasting agent Exitron 6000 (Viscovert). Imaging data were reconstructed by TomoScope software and analyzed using Osirix software. […] To compare to another agonistic, immune stimulating agent, a single dose of anti-CD40 antibody (4 mg/kg; clone FGK.45, BioXCell) was given. Data depicted are means±SEM for a minimum of n=9 animals per group.

Question: With CCCN(C)C(=O)n1c(=O)n(Cc2ccc(Cl)cc2)c2nc([S@](=N)(=O)CC)nc(N)c21 [Example 41-A, 6-Amino-9-[(4-chlorophenyl)methyl]-2-[S(R)-ethylsulfonimidoyl]-N-methyl-8-oxo-N-propyl-purine-7-carboxamide] as the molecule, how does the survival of mice [1] read?
Answer: 5/10

Question: What about the “PD-L1 expression on tumor cells” value [2] of the same molecule?
Answer: induced PD-L1 expression on tumor cells

Question: And the “PD-L1 expression on tumor cells” value ([2]; listed as compound 41-A)?
Answer: induces PD-L1 expression on tumor cells

Question: What about the “Examination of the liver for superficial tumor nodules (tumor nodule free)” value [3] of the same molecule?
Answer: 0/10 tumor nodule free

Question: And the “tumor growth (tumor volume)” value [4]?
Answer: tumor stasis; also recorded: inhibition of tumor growth
